Patent US20150010928A1, “MEANS AND METHODS FOR ASSESSING AN ENDOCRINE DISEASE OR DISORDER” (priority 2012, published 2015)
Marks after values point to notes of the source that are not given here. Each block holds one molecule with its values, some of them ahead of it.

Tests used:
[1] = tested on: female rats; assay: Plasma metabolite profiling (GC-MS, LC-MS, SPE-LC-MS) in female rats dosed once daily over 28 days (OECD 407); type: in vivo, rat; conditions: high dose, Table 14a
Experimental: Each dose group in the studies consisted of five rats per sex. Additional groups of each 5 male and female animals served as controls. […] All animals of the animal population were kept under the same constant temperature (20-24±3° C.) and the same constant humidity (30-70%). The animals of the animal population were fed ad libitum. The food to be used was essentially free of chemical or microbial contaminants. Drinking water was also offered ad libitum. Accordingly, the water was free of chemical and microbial contaminants as laid down in the European Drinking Water Directive 98/83/EG. The illumination period was 12 hours light followed by 12 hours darkness (12 hours light, from 6:00 to 18:00, and 12 hours darkness, from 18:00 to 6:00). […] The test substances (compounds) in the Tables 1 to 17 below were dosed and administered as described in the Table 18.
In the morning of day 7, 14, and 28, blood was taken from the retroorbital venous plexus from fasted anaesthetized animals. From each animal, 1 ml of blood was collected with EDTA as anticoagulant. The samples were centrifuged for generation of plasma. All plasma samples were covered with a N2 atmosphere and then stored at −80° C. until analysis.
For mass spectrometry-based metabolite profiling analyses plasma samples were extracted and a polar and a non-polar (lipid) fraction was obtained. For GC-MS analysis, the non-polar fraction was treated with methanol under acidic conditions to yield the fatty acid methyl esters. Both fractions were further derivatised with O-methyl-hydroxyamine hydrochloride and pyridine to convert Oxogroups to O-methyloximes and subsequently with a silylating agent before analysis. In LC-MS analysis, both fractions were reconstituted in appropriate solvent mixtures. HPLC was performed by gradient elution on reversed phase separation columns. Mass spectrometric detection which allows target and high sensitivity MRM (Multiple Reaction Monitoring) profiling in parallel to a full screen analysis was applied as described in WO2003073464.
Steroids and their metabolites were measured by online SPE-LC-MS (Solid phase extraction-LC-MS).
Following comprehensive analytical validation steps, the data for each analyte were normalized against data from pool samples. These samples were run in parallel through the whole process to account for process variability. The significance of treatment group values specific for sex, treatmentduration and metabolite was determined by comparing means of the treated groups to the means of the respective untreated control groups using WELCH-test and quantified with treatment ratios versus control and p-values.
The identification of the most important biomarkers per toxicity pattern was done by a ranking of the analytes in the tables below. Therefore the metabolic changes in reference treatments of a given pattern (shown in the table) were compared with changes of the same metabolite in other unrelated treatments. […] The maximum absolute value of the respective TVALUE was taken to indicate the most important metabolite for the pattern.

[2] = tested on: male rats; assay: Plasma metabolite profiling (GC-MS, LC-MS, SPE-LC-MS) in male rats dosed once daily over 28 days (OECD 407); type: in vivo, rat; conditions: high dose; for Cholesterol / Choline plasmalogen No 02 / Lignoceric acid (C24:0) / Sphingomyelin (d18:1, C16:0) / Sphingomyelin (d18:2, C16:0) / erythro-Sphingosine (d18:1): Table 14b
Method in brief: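 Metabolites were measured by GC-MS (derivatised) and reversed-phase LC-MS, with steroids by online SPE-LC-MS, in plasma drawn from fasted rats on days 7, 14 and 28 of once-daily dosing (5/sex/group). Values are ratios versus sex-matched untreated controls, normalized to pool samples, with Welch-test p-values.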

Structure (SMILES): CCC(=O)Oc1ccc(/C(CC)=C(\CC)c2ccc(OC(=O)CC)cc2)cc1 [Diethylstilboestrol dipropionate]
- Cholesterol ([1]; f7): 0.48 *
- Choline plasmalogen No 02 ([1]; f7): 0.7 *
- Lignoceric acid (C24:0) ([1]; f7): 0.49 *
- Sphingomyelin (d18:1, C16:0) ([1]; f7): 0.72 *
- Sphingomyelin (d18:2, C16:0) ([1]; f7): 0.67 *
- erythro-Sphingosine (d18:1) ([1]; f7): 0.38 *
- Cholesterol ([1]; f14): 0.69 *
- Choline plasmalogen No 02 ([1]; f14): 0.75 *
- Lignoceric acid (C24:0) ([1]; f14): 0.6 *
- Sphingomyelin (d18:1, C16:0) ([1]; f14): 0.59^
- Sphingomyelin (d18:2, C16:0) ([1]; f14): 0.71 *
- erythro-Sphingosine (d18:1) ([1]; f14): 0.67 *
- Cholesterol ([1]; f28): 0.58 *
- Choline plasmalogen No 02 ([1]; f28): 0.67 *
- Lignoceric acid (C24:0) ([1]; f28): 0.59 *
- Sphingomyelin (d18:1, C16:0) ([1]; f28): 0.73 *
- Sphingomyelin (d18:2, C16:0) ([1]; f28): 0.58 *
- erythro-Sphingosine (d18:1) ([1]; f28): 0.46 *

- Cholesterol ([2]; m7): 0.45
- Choline plasmalogen No 02 ([2]; m7): 0.59
- Lignoceric acid (C24:0) ([2]; m7): 0.49
- Sphingomyelin (d18:1, C16:0) ([2]; m7): 0.41
- Sphingomyelin (d18:2, C16:0) ([2]; m7): 0.49
- erythro-Sphingosine (d18:1) ([2]; m7): 0.28
- Cholesterol ([2]; m14): 0.51
- Choline plasmalogen No 02 ([2]; m14): 0.6
- Lignoceric acid (C24:0) ([2]; m14): 0.63
- Sphingomyelin (d18:1, C16:0) ([2]; m14): 0.63
- Sphingomyelin (d18:2, C16:0) ([2]; m14): 0.52
- erythro-Sphingosine (d18:1) ([2]; m14): 0.41
- Cholesterol ([2]; m28): 0.51
- Choline plasmalogen No 02 ([2]; m28): 0.68
- Lignoceric acid (C24:0) ([2]; m28): 0.63
- Sphingomyelin (d18:1, C16:0) ([2]; m28): 0.6
- Sphingomyelin (d18:2, C16:0) ([2]; m28): 0.6
- erythro-Sphingosine (d18:1) ([2]; m28): 0.42
Structure (SMILES): CC/C(=C(\c1ccccc1)c1ccc(OCCN(C)C)cc1)c1ccccc1 [Tamoxifen]

Structure (SMILES): CC1(C)CCC(=Cc2ccc(Cl)cc2)C1(O)Cn1cncn1 (stereo not shown) [Triticonazole]
- Glycerol, polar fraction ([2]; m7, male rats, Table 16): 1.03
- Testosterone ([2]; m7, male rats, Table 16): 0.55 *
- Testosterone ([2]; m14, male rats, Table 16): 1.03
- Testosterone ([2]; m28, male rats, Table 16): 0.23 *

Structure (SMILES): C=CC1(C)OC(=O)N(c2cc(Cl)cc(Cl)c2)C1=O (stereo not shown) [Vinclozolin]
- Testosterone ([2]; m7, Table 11a): 1.41^
- Testosterone ([2]; m14, Table 11a): 2.44 *
- Testosterone ([2]; m28, Table 11a): 1.09^
